What is called inhibition is how much of the control response was suppressed.

For this test, the target named is T1, Dipeptidyl-Peptidase IV (DPPIV) (Homo sapiens, UniProt P27487).
T1 construct: gene DPP4
As to the kind of experiment: fluorometric DPPIV activity assay kit, % inhibition at […]. It is filed as biochemical.

Structures are written as SMILES.

T1 sequence (P27487 whole entry): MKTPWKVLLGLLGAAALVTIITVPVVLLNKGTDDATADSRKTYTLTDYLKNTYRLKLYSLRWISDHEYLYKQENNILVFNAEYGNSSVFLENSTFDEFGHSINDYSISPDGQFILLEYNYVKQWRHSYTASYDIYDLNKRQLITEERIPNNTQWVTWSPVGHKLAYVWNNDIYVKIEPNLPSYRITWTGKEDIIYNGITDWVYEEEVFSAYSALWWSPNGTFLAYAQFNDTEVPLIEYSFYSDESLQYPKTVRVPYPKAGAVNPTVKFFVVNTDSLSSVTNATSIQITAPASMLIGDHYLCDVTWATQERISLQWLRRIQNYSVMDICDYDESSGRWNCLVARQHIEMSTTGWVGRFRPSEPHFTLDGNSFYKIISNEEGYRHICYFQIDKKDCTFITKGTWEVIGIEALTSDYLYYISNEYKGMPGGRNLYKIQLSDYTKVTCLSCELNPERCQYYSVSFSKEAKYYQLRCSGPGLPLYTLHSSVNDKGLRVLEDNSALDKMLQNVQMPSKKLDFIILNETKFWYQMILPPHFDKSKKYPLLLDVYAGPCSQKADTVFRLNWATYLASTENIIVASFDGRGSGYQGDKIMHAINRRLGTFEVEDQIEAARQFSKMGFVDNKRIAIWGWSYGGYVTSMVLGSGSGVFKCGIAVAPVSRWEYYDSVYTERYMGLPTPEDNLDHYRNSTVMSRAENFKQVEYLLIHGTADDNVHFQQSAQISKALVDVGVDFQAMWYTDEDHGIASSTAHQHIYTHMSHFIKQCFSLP

For `COc1ccc(-c2nc(=O)c3ccccc3n2C)cc1` [4f, 2-(4-Methoxyphenyl)-1-methylquinazolin-4(1H)-one], 100 µM produced 82.4% inhibition.
The figure for `N=C(NC(=O)c1ccccc1)NC(=O)c1ccccc1` [2n, N,N′-(Iminomethylene)dibenzamide] is 82.7%; for `O=c1nc(-c2ccc(C(F)(F)F)cc2)[nH]c2ccccc12` [4i, 2-(4-(Trifluoromethyl)phenyl)quinazolin-4(1H)-one] it is 72.5%.
`COc1ccc(-c2nc(=O)c3ccccc3[nH]2)cc1` [4h, 2-(4-Methoxyphenyl) quinazolin-4(1H)-one] displayed an inhibition at 100 µM of 79.1%.
The figure for `CC(=O)NC(=N)NC(=O)c1ccccc1` [2k, N-(N-Acetylcarbamimidoyl)benzamide] is 79.3%.

The record behind these values is PMC8621334, “Ammonium Formate-Pd/C as a New Reducing System for 1,2,4-Oxadiazoles. Synthesis of Guanidine Derivatives and Reductive Rearrangement to Quinazolin-4-Ones with Potential Anti-Diabetic Activity” (International Journal of Molecular Sciences, 2021).
